ChEMBL document CHEMBL4480418, “Antibacterial activity of indolyl-quinolinium derivatives and study their mode of action” (Bioorg Med Chem, 2019)
Values after ≈ are worked out from the molar mass of the structure shown. Active and inactive are the calls of the source. The rule behind the calls is not given here.

Assays:
[1] = tested on: Staphylococcus aureus; assay: Antimicrobial activity against penicillin-resistant Staphylococcus aureus ATCC 29213 assessed as ratio of MIC after and before 15 serial passages preincubated followed by replating and measured after 24 hrs; assay type: functional
[2] = tested on: Staphylococcus aureus; assay: Antimicrobial activity against penicillin-resistant Staphylococcus aureus ATCC 29213 measured after 18 hrs by broth microdilution method; assay type: functional; details: ATCC 29213, 18 h
[3] = tested on: Enterococcus faecium; assay: Antimicrobial activity against vancomycin-resistant Enterococcus faecium ATCC 700221 measured after 18 hrs by broth microdilution method; assay type: functional; details: ATCC 700221, 18 h
[4] = tested on: Enterobacter cloacae; assay: Antimicrobial activity against Ampc beta-lactamase expressing Enterobacter cloacae ATCC BAA-1143 measured after 18 hrs by broth microdilution method; assay type: functional; details: ATCC BAA-1143, 18 h
[5] = tested on: Enterococcus faecalis; assay: Antimicrobial activity against Enterococcus faecalis ATCC 29212 measured after 18 hrs by broth microdilution method; assay type: functional; details: ATCC 29212, 18 h
[6] = tested on: Staphylococcus aureus; assay: Antimicrobial activity against methicillin-resistant Staphylococcus aureus ATCC BAA-41 measured after 18 hrs by broth microdilution method; assay type: functional; details: ATCC BAA-41, 18 h
[7] = tested on: Pseudomonas aeruginosa; assay: Antimicrobial activity against multidrug-resistant Pseudomonas aeruginosa ATCC BAA-2108 measured after 18 hrs by broth microdilution method; assay type: functional; details: ATCC BAA-2108, 18 h
[8] = tested on: Staphylococcus aureus; assay: Antimicrobial activity against Staphylococcus aureus ATCC 25923 measured after 18 hrs by broth microdilution method; assay type: functional; details: ATCC 25923, 18 h
[9] = tested on: Klebsiella pneumoniae; assay: Antimicrobial activity against NDM1 beta-lactamase expressing Klebsiella pneumoniae ATCC BAA-2470 measured after 18 hrs by broth microdilution method; assay type: functional; details: ATCC BAA-2470, 18 h
[10] = tested on: Bacillus subtilis; assay: Antibacterial activity against Bacillus subtilis 168 measured after 18 hrs by broth microdilution method; assay type: functional; details: subsp. subtilis str. 168, 18 h
[11] = tested on: Escherichia coli; assay: Antimicrobial activity against NDM1 beta -lactamse expressing Escherichia coli ATCC BAA-2469 measured after 18 hrs by broth microdilution method; assay type: functional; details: ATCC BAA-2469, 18 h
[12] = tested on: Enterococcus faecium; assay: Antimicrobial activity against drug-susceptible Enterococcus faecium ATCC 49624 measured after 18 hrs by broth microdilution method; assay type: functional; details: ATCC 49624, 18 h
[13] = tested on: Escherichia coli; assay: Antimicrobial activity against Escherichia coli ATCC 25922 measured after 18 hrs by broth microdilution method; assay type: functional; details: ATCC 25922, 18 h
[14] = tested on: Staphylococcus aureus; assay: Antimicrobial activity against methicillin-resistant Staphylococcus aureus ATCC 43300 measured after 18 hrs by broth microdilution method; assay type: functional; details: ATCC 43300, 18 h
[15] = tested on: Acinetobacter baumannii; assay: Antimicrobial activity against multidrug-resistant Acinetobacter baumannii ATCC 19606 measured after 18 hrs by broth microdilution method; assay type: functional; details: ATCC 19606 = CIP 70.34 = JCM 6841, 18 h
[16] = tested on: Staphylococcus aureus; assay: Bactericidal activity against methicillin-resistant Staphylococcus aureus ATCC BAA-41 incubated for 18 hrs followed by replating on TSB agar and measured after 24 hrs by broth microdilution method; assay type: functional
[17] = tested on: Staphylococcus aureus; assay: Bactericidal activity against penicillin-resistant Staphylococcus aureus ATCC 29213 incubated for 18 hrs followed by replating on TSB agar and measured after 24 hrs by broth microdilution method; assay type: functional
[18] = target: T1, Cell division protein FtsZ (Bacillus subtilis (strain 168)) (UniProt P17865); assay: Inhibition of cell division function of FtsZ in Bacillus subtilis 168 assessed as increase in cell length at MIC after 4 hrs by FM4-64 dye based confocal microscopic method; details: Bacillus subtilis subsp. subtilis str. 168
T1 sequence (whole entry): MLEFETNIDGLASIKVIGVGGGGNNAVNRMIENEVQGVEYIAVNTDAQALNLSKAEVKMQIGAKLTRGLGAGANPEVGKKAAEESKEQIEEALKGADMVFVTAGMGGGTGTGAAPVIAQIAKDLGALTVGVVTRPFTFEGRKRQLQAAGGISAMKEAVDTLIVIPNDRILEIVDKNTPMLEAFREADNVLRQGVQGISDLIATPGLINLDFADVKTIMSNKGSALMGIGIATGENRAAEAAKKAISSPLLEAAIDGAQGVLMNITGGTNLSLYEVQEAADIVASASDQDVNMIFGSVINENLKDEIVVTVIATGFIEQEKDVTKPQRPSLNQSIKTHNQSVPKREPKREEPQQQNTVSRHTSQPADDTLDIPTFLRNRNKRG

Row | Compound | Ratio [1] | MIC [2] [mg/L] | MIC [3] [mg/L] | MIC [4] [mg/L] | MIC [5] [mg/L] | MIC [6] [mg/L] | MIC [7] [mg/L] | MIC [8] [mg/L] | MIC [9] [mg/L] | MIC [10] [mg/L] | MIC [11] [mg/L] | MIC [12] [mg/L] | MIC [13] [mg/L] | MIC [14] [mg/L] | MIC [15] [mg/L] | MBC [16] [mg/L] | MBC [17] [mg/L] | inhibition [18]
1 | CCn1cc(C(=O)O)c(=O)c2cc(F)c(N3CCNCC3)cc21 [NORFLOXACIN] | 500 | – | – | – | – | – | – | – | – | – | – | – | – | – | – | – | – | –
2 | C[n+]1c(/C=C/c2c[nH]c3ccccc23)cc(N2CCOCC2)c2ccccc21.[I-] | – | 16 | 32 | > 64 | 16 | 32 | > 64 | 16 | > 64 | 16 | > 64 | 16 | 64 | 32 | > 64 | – | – | –
3 | CC1(C)S[C@@H]2[C@H](NC(=O)Cc3ccccc3)C(=O)N2[C@H]1C(=O)O [PENICILLIN G] | – | > 64 | > 64 | > 64 | 0.5 (≈ 1.5 µM) | > 64 | > 64 | < 0.125 | > 64 | 32 (≈ 95.7 µM) | > 64 | 0.25 (≈ 0.748 µM) | 1 (≈ 2.99 µM) | > 64 | 64 (≈ 191 µM) | – | – | –
4 | CN[C@H](CC(C)C)C(=O)N[C@H]1C(=O)N[C@@H](CC(N)=O)C(=O)N[C@H]2C(=O)N[C@H]3C(=O)N[C@H](C(=O)N[C@H](C(=O)O)c4cc(O)cc(O)c4-c4cc3ccc4O)[C@H](O)c3ccc(c(Cl)c3)Oc3cc2cc(c3O[C@@H]2O[C@H](CO)[C@@H](O)[C@H](O)[C@H]2O[C@H]2C[C@](C)(N)[C@H](O)[C@H](C)O2)Oc2ccc(cc2Cl)[C@H]1O [VANCOMYCIN] | – | – | > 64 | > 64 | 2 (≈ 1.38 µM) | – | > 64 | – | > 64 | 0.25 (≈ 0.173 µM) | > 64 | – | > 64 | – | 64 (≈ 44.2 µM) | 2 (≈ 1.38 µM) | 2 (≈ 1.38 µM) | –
5 | O=C(O)c1cn(C2CC2)c2cc(N3CCNCC3)c(F)cc2c1=O [CIPROFLOXACIN] | – | 2 (≈ 6.04 µM) | > 64 | – | 4 (≈ 12.1 µM) | > 64 | 64 (≈ 193 µM) | < 0.125 | 64 (≈ 193 µM) | 2 (≈ 6.04 µM) | > 64 | 32 (≈ 96.6 µM) | < 0.125 | 2 (≈ 6.04 µM) | 2 (≈ 6.04 µM) | – | – | –
6 | CC1CCN(c2cc(/C=C/c3cc4ccccc4[nH]3)[n+](C)c3ccccc23)CC1.[I-] | – | 4 | 8 | > 64 | 8 | 8 | > 64 | 4 | > 64 | 8 | 32 | 4 | 32 | 8 | > 64 | – | – | –
7 | C[n+]1c(/C=C/c2cc3ccccc3[nH]2)cc(NCCN2CCCCC2)c2ccccc21.[I-] | – | 16 | 32 | > 64 | 64 | 32 | > 64 | 16 | > 64 | 16 | 64 | 16 | 32 | 32 | 64 | – | – | –
8 | CO[C@H]1/C=C/O[C@@]2(C)Oc3c(C)c(O)c4c(O)c(c(/C=N/N5CCN(C)CC5)c(O)c4c3C2=O)NC(=O)/C(C)=C\C=C\[C@H](C)[C@H](O)[C@@H](C)[C@@H](O)[C@@H](C)[C@H](OC(C)=O)[C@@H]1C [RIFAMPIN] | 2000 | – | – | – | – | – | – | – | – | – | – | – | – | – | – | – | – | –
9 | C[n+]1c(/C=C/c2c[nH]c3ccccc23)cc(NCCN2CCOCC2)c2ccccc21.[I-] | – | 32 | 64 | > 64 | 64 | 64 | > 64 | 64 | > 64 | 64 | > 64 | 32 | > 64 | 64 | > 64 | – | – | –
10 | CCN(CC)CCNc1cc(/C=C/c2c[nH]c3ccccc23)[n+](C)c2ccccc12.[I-] | – | 16 | 64 | > 64 | 64 | 32 | > 64 | 16 | > 64 | 16 | 64 | 32 | 64 | 32 | > 64 | – | – | –
11 | CC1CCN(c2cc(/C=C/c3c[nH]c4ccccc34)[n+](C)c3ccccc23)CC1.[I-] | – | 4 | 4 | > 64 | 4 | 4 | > 64 | 2 | > 64 | 4 | 32 | 2 | 16 | 4 | 32 | – | – | Active
12 | CCN(CC)CCNc1cc(/C=C/c2cc3ccccc3[nH]2)[n+](C)c2ccccc12.[I-] | – | 16 | 64 | > 64 | 64 | 32 | > 64 | 16 | > 64 | 16 | 64 | 32 | 64 | 64 | > 64 | – | – | –
13 | C[n+]1c(/C=C/c2c[nH]c3ccccc23)ccc2ccccc21.[I-] | – | 32 | 64 | > 64 | 32 | 32 | > 64 | 32 | > 64 | 32 | > 64 | 32 | > 64 | 32 | > 64 | – | – | –
14 | C[n+]1c(/C=C/c2c[nH]c3ccccc23)cc(N2CCCC2)c2ccccc21.[I-] | – | 2 | 8 | > 64 | 16 | 4 | > 64 | 4 | > 64 | 8 | 32 | 4 | 32 | 16 | 64 | – | – | –
15 | C[n+]1c(/C=C/c2cc3ccccc3[nH]2)cc(N2CCOCC2)c2ccccc21.[I-] | – | 16 | 32 | > 64 | 64 | 16 | > 64 | 16 | > 64 | 8 | 64 | 16 | 64 | 16 | > 64 | – | – | –
16 | C[n+]1c(/C=C/c2cc3ccccc3[nH]2)ccc2ccccc21.[I-] | – | 32 | 64 | > 64 | 32 | 32 | > 64 | 32 | > 64 | 32 | 64 | 32 | 64 | 64 | > 64 | – | – | –
17 | C[n+]1c(/C=C/c2cc3ccccc3[nH]2)cc(N2CCCC2)c2ccccc21.[I-] | – | 2 | 16 | > 64 | 16 | 8 | > 64 | 4 | > 64 | 8 | 32 | 8 | 32 | 8 | 64 | – | – | –
18 | C[n+]1c(/C=C/c2c[nH]c3ccccc23)cc(NCCN2CCCC2)c2ccccc21.[I-] | – | 16 | 64 | > 64 | 64 | 64 | > 64 | 16 | > 64 | 32 | 64 | 32 | 64 | 64 | > 64 | – | – | –
